According to ChEMBL document CHEMBL5360530, “Structure activity relationship (SAR) and anticancer activity of pyrrolidine derivatives: Recent developments and future prospects (A review)” (Eur J Med Chem, 2023):

How the values were obtained:
[1] = system: HT-29; test: Anticancer activity against human HT-29 cells assessed as cell growth inhibition measured after 24 hrs by MTT assay; type: functional, cell-based; conditions: HT-29, 24 h
[2] = system: MCF7; test: Anticancer activity against human MCF7 cells assessed as cell growth inhibition measured after 24 hrs by MTT assay; type: functional, cell-based; conditions: MCF7, 24 h
[3] = system: MCF7; test: Growth inhibition of human MCF7 cells assessed as cell growth inhibition by SRB assay; type: functional
[4] = system: COS-7; test: Anticancer activity against COS-7 cells assessed as cell growth inhibition at 50 uM measured after 48 hrs by MTT assay relative to control; type: functional; conditions: Chlorocebus aethiops
[5] = system: PC-3; test: Potency index, ratio of cisplatin IC50 to test compound IC50 for anticancer activity against human PC-3 cells; type: functional
[6] = system: HepG2; test: Anticancer activity against human HepG2 cell assessed as cell growth inhibition; type: functional, cell-based
[7] = system: MCF7; test: Anticancer activity against human MCF7 cells assessed as cell growth inhibition measured after 48 hrs by MTT assay; type: functional, cell-based; conditions: MCF7, 48 h
[8] = system: HT-29; test: Anticancer activity against human HT-29 cells assessed as cell growth inhibition measured after 48 hrs by MTT assay; type: functional, cell-based; conditions: HT-29, 48 h
[9] = system: K562; test: Anticancer activity against human K562 cells assessed as cell growth inhibition measured after 48 hrs by MTT assay; type: functional, cell-based; conditions: K562, 48 h
[10] = system: MCF7; test: Anticancer activity against human MCF7 cells assessed as cell growth inhibition measured after 24 hrs by SRB assay; type: functional, cell-based; conditions: MCF7, 24 h
[11] = system: HCT-116; test: Anticancer activity against human HCT-116 cells assessed as cell growth inhibition measured after 24 hrs by SRB assay; type: functional, cell-based; conditions: HCT-116, 24 h
[12] = system: Mahlavu; test: Anticancer activity against human Mahlavu cells assessed as cell growth inhibition measured after 24 hrs by SRB assay; type: functional, cell-based
[13] = system: Huh-7; test: Anticancer activity against human Huh-7 cells assessed as cell growth inhibition measured after 24 hrs by SRB assay; type: functional, cell-based; conditions: Huh-7, 24 h
[14] = system: MDA-MB-435; test: Growth inhibition of human MDA-MB-435 cells assessed as cell growth inhibition by SRB assay; type: functional
[15] = system: MDA-MB-435; test: Anticancer activity against human MDA-MB-435 cells assessed as cell growth inhibition by SRB assay; type: functional, cell-based
[16] = system: MCF7; test: Anticancer activity against human MCF7 cells assessed as cell growth inhibition by SRB assay; type: functional, cell-based
[17] = system: PC-3; test: Anticancer activity against human PC-3 cells assessed as cell death at 50 uM measured after 72 hrs by MTT assay relative to control; type: functional
[18] = system: MCF7; test: Anticancer activity against human MCF7 cells assessed as cell growth inhibition measured after 48 hrs by WST-1 assay; type: functional, cell-based; conditions: MCF7, 48 h
[19] = system: K562; test: Anticancer activity against human K562 cells assessed as cell growth inhibition measured after 48 hrs by WST-1 assay; type: functional, cell-based; conditions: K562, 48 h
[20] = system: HCT-116; test: Anticancer activity against human HCT-116 cell assessed as cell growth inhibition; type: functional, cell-based
[21] = system: PC-3; test: Anticancer activity against human PC-3 cell assessed as cell growth inhibition; type: functional, cell-based

With O=C1c2ccccc2C(=O)N1/N=C/c1ccccc1 the IC50 [1] was 644 µM and the IC50 [2] was 293 µM.
For O=C(/C=C/c1ccccc1)c1ccc(OCCN2CCCC2)cc1, the GI50 [3] was under 10 µg/mL.
O=C1Nc2ccccc2C12CCNC2c1cccc(F)c1 (stereo unspecified) showed an inhibition at 50 µM [4] of 0.51%.
O=C(c1c[nH]c2ccccc12)[C@@H]1[C@@H](c2ccc(Cl)cc2Cl)[C@@H]2CSCN2[C@@]12C(=O)Nc1ccccc12 was tested, and the “Ratio IC50” value [5] was over 4.3 and the IC50 [6] was 5.5 µM.
Work on COc1cc(OC)c(C2NCCC23C(=O)Nc2ccccc23)cc1OC (stereo unspecified) yielded an inhibition at 50 µM [4] of 0.51%.
With COc1cc(/C=N/N2C(=O)c3ccccc3C2=O)cc(OC)c1O the IC50 [1] was 278 µM and the IC50 [2] was 293 µM.
For O=C1CCC(=O)N1CC(=O)N1N=C(c2ccccc2)CC1c1ccc(F)cc1 (stereo unspecified), the IC50 [7] was 0.39 µM, the IC50 [8] was 0.39 µM and the IC50 [9] was 0.39 µM.
In the case of O=C1CCC(=O)N1CC(=O)N1N=C(c2ccccc2)CC1c1ccc(Cl)c(Cl)c1 (stereo unspecified), the IC50 [7] is reported as 0.78 µM, the IC50 [8] is reported as 0.39 µM and the IC50 [9] is reported as 61.9 µM.
O=C1Nc2ccccc2C12CCNC2c1cc(C(F)(F)F)ccc1C(F)(F)F (stereo unspecified) showed an inhibition at 50 µM [4] of 0.51%.
With CCNC(=O)[C@H]1[C@H](c2ccc([N+](=O)[O-])cc2)[C@@]2(C(=O)Nc3ccccc32)[C@H](CC(C)C)N1[C@H](c1ccccc1)[C@@H](O)c1ccccc1 the IC50 [10] was 4.8 µM, the IC50 [11] was 3.9 µM and the IC50 [12] was 14.9 µM. It also gave an IC50 [13] of 8.2 µM.
N#CC1=C(N)OC2=C(C(=O)CO2)C12C(=O)Nc1ccc(Cl)cc12 (stereo unspecified) showed a GI50 [14] of 2.1 µM, an IC50 [15] of at least 3.6 µM and an IC50 [16] of at least 53 µM.
In the case of N#CC1=C(N)OC2=C(c3ccccc3C2=O)C12C(=O)Nc1ccc(I)cc12 (stereo unspecified), the IC50 [15] is reported as at least 3.6 µM and the IC50 [16] is reported as at least 53 µM.
Work on COC(=O)[C@H]1C[C@@H](C(=O)OC)C(c2ccccc2)(c2ccccc2)N1C(=O)Cn1cc(C2CCCC2)nn1 yielded an Activity [17] of 30%.
In the case of N#CC1=C(N)OC2=C(C(=O)CO2)C12C(=O)Nc1ccc(Br)cc12 (stereo unspecified), the GI50 [14] is reported as 1.8 µM, the IC50 [15] is reported as at least 3.6 µM and the IC50 [16] is reported as at least 53 µM.
CC(=O)Oc1ccc(C(=O)/C=C2/C(=O)Nc3ccc(S(=O)(=O)N4CCOCC4)cc32)cc1 gave an IC50 [11] of 5.07 µM.
With N#CC1=C(N)OC2=C(c3ccccc3C2=O)C12C(=O)Nc1ccc(Br)cc12 (stereo unspecified) the IC50 [15] was at least 3.6 µM and the IC50 [16] was at least 53 µM.
In the case of COC(=O)[C@H]1C[C@@H](C(=O)OC)C(c2ccccc2)(c2ccccc2)N1C(=O)Cn1cc(CC2CCCCC2)nn1, the Activity [17] is reported as 64%.
With CC(C)C[C@@H]1N2[C@H](c3ccccc3)[C@H](c3ccccc3)OC(=O)[C@H]2[C@H](c2ccccc2)[C@@]12C(=O)Nc1ccccc12 the IC50 [10] was 4.8 µM, the IC50 [11] was 3.9 µM and the IC50 [12] was 14.9 µM. It also gave an IC50 [13] of 8.2 µM.
O=C1c2ccccc2C(=O)N1/N=C/c1ccc(F)c(Br)c1 showed an IC50 [1] of 254 µM and an IC50 [2] of 293 µM.
For COC(=O)[C@H]1C[C@@H](C(=O)OC)C(c2ccccc2)(c2ccccc2)N1C(=O)Cn1cc(CCc2ccccc2)nn1, the Activity [17] was 25%.
In the case of COc1ccc(/C=C2\CCC[C@@]3(C2=O)[C@@H](c2ccc(OC)cc2)[C@@H]2CSCN2[C@]32C(=O)Nc3ccccc32)cc1, the IC50 [18] is reported as 24.4 µM and the IC50 [19] is reported as 14.7 µM.
COC(=O)[C@H]1C[C@@H](C(=O)OC)C(c2ccccc2)(c2ccccc2)N1C(=O)Cn1cc(-c2ccccc2)nn1 gave an Activity [17] of 30%.
Molecule N#CC1=C(N)OC2=C(C(=O)CO2)C12C(=O)Nc1ccccc12 (stereo unspecified) has a GI50 [14] of 29.9 µM, an IC50 [15] of at least 3.6 µM and an IC50 [16] of at least 53 µM.
O=C(/C=C/c1ccc(OCCN2CCCC2)cc1)c1ccc(Cl)cc1Cl gave a GI50 [3] of over 80 µg/mL.
Cc1ccc([C@@H]2[C@@H](C(=O)c3c[nH]c4ccccc34)[C@]3(C(=O)Nc4ccccc43)N3CSC[C@@H]23)cc1 gave an IC50 [20] of 9 µM, an IC50 [6] of 5.5 µM and an IC50 [21] of 6 µM.
O=C(/C=C/c1ccco1)c1ccc(OCCN2CCCC2)cc1 gave a GI50 [3] of over 80 µg/mL.
